Patent publication US20070010671A1, “Novel quinazoline derivatives and methods of treatment related to the use thereof” (priority 2003, published 2007)

These compounds were tested against MCH receptor (Homo sapiens, UniProt Q99705) (assay: High throughput functional screening FLIPR/FDSS6000: inhibition of MCH-evoked intracellular Ca2+ changes). Settings: class by percent of control at 10^-7 M or IC50.
Type: cell-based
Summary of the method: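 In a kinetic calcium-flux format, compounds were tested at various concentrations against 50 nM MCH. Fluo4-loaded cells expressing a constitutively active, non-endogenous receptor were imaged at 488/530 nm for 290 s after agonist addition.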

| Structure (SMILES) | class |
| --- | --- |
| Cc1c(Cl)cccc1NC(=O)NC[C@H]1CC[C@@H](Nc2nc(N(C)C)c3ccccc3n2)CC1 [compound 528] | 1 (Class 1: The value of percent of control at 10^−7 M was less than 40% or the value of IC50 was less than 50 nM.) |
| CN(C)c1nc(N[C@H]2CC[C@@H](CNC(=O)Nc3ccc(F)c(Cl)c3)CC2)nc2ccccc12 [compound 529] | 1 (Class 1: The value of percent of control at 10^−7 M was less than 40% or the value of IC50 was less than 50 nM.) |
| COc1ccc(NC(=O)NC[C@H]2CC[C@@H](Nc3nc(N(C)C)c4ccccc4n3)CC2)cc1Cl [compound 530] | 3 (Class 3: The value of percent of control at 10^−7 M was more than 60% or the value of IC50 was more than 200 nM.) |
| CCc1cccc(NC(=O)NC[C@H]2CC[C@@H](Nc3nc(N(C)C)c4ccccc4n3)CC2)c1 [compound 531, N-[(cis-4-{[4-(dimethylamino)quinazolin-2-yl]amino}cyclohexyl)methyl]-N′-(3-ethylphenyl)urea] | 2 (Class 2: The value of percent of control at 10^−7 M was from 40% to 60% or the value of IC50 was from 50 nM to 200 nM.) |
| CN(C)c1nc(N[C@H]2CC[C@@H](CNC(=O)Nc3cc(F)cc(C(F)(F)F)c3)CC2)nc2ccccc12 [compound 532] | 2 (Class 2: The value of percent of control at 10^−7 M was from 40% to 60% or the value of IC50 was from 50 nM to 200 nM.) |
| CN(C)c1nc(N[C@H]2CC[C@@H](CNC(=O)NCc3cccc(F)c3)CC2)nc2ccccc12 [compound 533, N-[(cis-4-{[4-(dimethylamino)quinazolin-2-yl]amino}cyclohexyl)methyl]-N′-(3-fluorobenzyl)urea] | 2 (Class 2: The value of percent of control at 10^−7 M was from 40% to 60% or the value of IC50 was from 50 nM to 200 nM.) |
| CN(C)c1nc(N[C@H]2CC[C@@H](CNC(=O)Nc3cccc(Oc4ccccc4)c3)CC2)nc2ccccc12 [compound 534] | 3 (Class 3: The value of percent of control at 10^−7 M was more than 60% or the value of IC50 was more than 200 nM.) |
| CCCCOC(=O)c1ccc(NC(=O)NC[C@H]2CC[C@@H](Nc3nc(N(C)C)c4ccccc4n3)CC2)cc1 [compound 535] | 3 (Class 3: The value of percent of control at 10^−7 M was more than 60% or the value of IC50 was more than 200 nM.) |
| CN(C)c1nc(N[C@H]2CC[C@@H](CNC(=O)Nc3ccc(C(F)(F)F)cc3)CC2)nc2ccccc12 [compound 536] | 3 (Class 3: The value of percent of control at 10^−7 M was more than 60% or the value of IC50 was more than 200 nM.) |
| CN(C)c1nc(N[C@H]2CC[C@@H](CNC(=O)Nc3ccc(SC(F)(F)F)cc3)CC2)nc2ccccc12 [compound 537] | 3 (Class 3: The value of percent of control at 10^−7 M was more than 60% or the value of IC50 was more than 200 nM.) |
| Cc1cc(NC(=O)NC[C@H]2CC[C@@H](Nc3nc(N(C)C)c4ccccc4n3)CC2)c([N+](=O)[O-])cc1C [compound 538] | 2 (Class 2: The value of percent of control at 10^−7 M was from 40% to 60% or the value of IC50 was from 50 nM to 200 nM.) |
| CN(C)c1nc(N[C@H]2CC[C@@H](CNC(=O)Nc3ccc(OCc4ccccc4)cc3)CC2)nc2ccccc12 [compound 539] | 3 (Class 3: The value of percent of control at 10^−7 M was more than 60% or the value of IC50 was more than 200 nM.) |
| CN(C)c1nc(N[C@H]2CC[C@@H](CNC(=O)Nc3ccc(Cc4ccccc4)cc3)CC2)nc2ccccc12 [compound 540] | 3 (Class 3: The value of percent of control at 10^−7 M was more than 60% or the value of IC50 was more than 200 nM.) |
| CN(C)c1nc(N[C@H]2CC[C@@H](CNC(=O)Nc3ccc(Br)cc3C(F)(F)F)CC2)nc2ccccc12 [compound 541, N-[4-bromo-2-(trifluoromethyl)phenyl]-N′-[(cis-4-{[4-(dimethylamino)quinazolin-2-yl]amino}cyclohexyl)methyl]urea] | 2 (Class 2: The value of percent of control at 10^−7 M was from 40% to 60% or the value of IC50 was from 50 nM to 200 nM.) |
| CN(C)c1nc(N[C@H]2CC[C@@H](CNC(=O)Nc3c(F)cc(Br)cc3F)CC2)nc2ccccc12 [compound 542, N-(4-bromo-2,6-difluorophenyl)-N′-[(cis-4-{[4-(dimethylamino)quinazolin-2-yl]amino}cyclohexyl)methyl]urea] | 1 (Class 1: The value of percent of control at 10^−7 M was less than 40% or the value of IC50 was less than 50 nM.) |
| CN(C)c1nc(N[C@H]2CC[C@@H](CNC(=O)Nc3ccc(Br)cc3Cl)CC2)nc2ccccc12 [compound 543] | 3 (Class 3: The value of percent of control at 10^−7 M was more than 60% or the value of IC50 was more than 200 nM.) |
| CN(C)c1nc(N[C@H]2CC[C@@H](CNC(=O)NCc3ccc(Br)cc3)CC2)nc2ccccc12 [compound 544] | 3 (Class 3: The value of percent of control at 10^−7 M was more than 60% or the value of IC50 was more than 200 nM.) |

| Structure (SMILES) | class |
| --- | --- |
| CN(C)c1nc(N[C@H]2CC[C@@H](CNC(=O)Nc3ccc(Cl)cc3C(F)(F)F)CC2)nc2ccccc12 [compound 545, N-[4-chloro-2-(trifluoromethyl)phenyl]-N′-[(cis-4-{[4-(dimethylamino)quinazolin-2-yl]amino}cyclohexyl)methyl]urea] | 1 (Class 1: The value of percent of control at 10^−7 M was less than 40% or the value of IC50 was less than 50 nM.) |
| Cc1cc(Cl)ccc1NC(=O)NC[C@H]1CC[C@@H](Nc2nc(N(C)C)c3ccccc3n2)CC1 [compound 546] | 2 (Class 2: The value of percent of control at 10^−7 M was from 40% to 60% or the value of IC50 was from 50 nM to 200 nM.) |
| CN(C)c1nc(N[C@H]2CC[C@@H](CNC(=O)Nc3ccc(Cl)cc3[N+](=O)[O-])CC2)nc2ccccc12 [compound 547] | 3 (Class 3: The value of percent of control at 10^−7 M was more than 60% or the value of IC50 was more than 200 nM.) |
| CN(C)c1nc(N[C@H]2CC[C@@H](CNC(=O)Nc3ccc(Cl)c(C(F)(F)F)c3)CC2)nc2ccccc12 [compound 548] | 3 (Class 3: The value of percent of control at 10^−7 M was more than 60% or the value of IC50 was more than 200 nM.) |
| CN(C)c1nc(N[C@H]2CC[C@@H](CNC(=O)Nc3ccc(C#N)cc3)CC2)nc2ccccc12 [compound 549, N-(4-cyanophenyl)-N′-[(cis-4-{[4-(dimethylamino)quinazolin-2-yl]amino}cyclohexyl)methyl]urea] | 1 (Class 1: The value of percent of control at 10^−7 M was less than 40% or the value of IC50 was less than 50 nM.) |
| CCOc1ccc(NC(=O)NC[C@H]2CC[C@@H](Nc3nc(N(C)C)c4ccccc4n3)CC2)cc1 [compound 550] | 3 (Class 3: The value of percent of control at 10^−7 M was more than 60% or the value of IC50 was more than 200 nM.) |
| CN(C)c1nc(N[C@H]2CC[C@@H](CNC(=O)Nc3ccc(F)cc3[N+](=O)[O-])CC2)nc2ccccc12 [compound 551, N-[(cis-4-{[4-(dimethylamino)quinazolin-2-yl]amino}cyclohexyl)methyl]-N′-(4-fluoro-2-nitrophenyl)urea] | 2 (Class 2: The value of percent of control at 10^−7 M was from 40% to 60% or the value of IC50 was from 50 nM to 200 nM.) |
| CN(C)c1nc(N[C@H]2CC[C@@H](CNC(=O)Nc3ccc(F)c(C(F)(F)F)c3)CC2)nc2ccccc12 [compound 552] | 3 (Class 3: The value of percent of control at 10^−7 M was more than 60% or the value of IC50 was more than 200 nM.) |
| CN(C)c1nc(N[C@H]2CC[C@@H](CNC(=O)NCc3ccc(F)cc3)CC2)nc2ccccc12 [compound 553, N-[(cis-4-{[4-(dimethylamino)quinazolin-2-yl]amino}cyclohexyl)methyl]-N′-(4-fluorobenzyl)urea] | 2 (Class 2: The value of percent of control at 10^−7 M was from 40% to 60% or the value of IC50 was from 50 nM to 200 nM.) |
| CCCCCCCOc1ccc(NC(=O)NC[C@H]2CC[C@@H](Nc3nc(N(C)C)c4ccccc4n3)CC2)cc1 [compound 554] | 3 (Class 3: The value of percent of control at 10^−7 M was more than 60% or the value of IC50 was more than 200 nM.) |
| CN(C)c1nc(N[C@H]2CC[C@@H](CNC(=O)Nc3ccc(I)cc3)CC2)nc2ccccc12 [compound 555, N-[(cis-4-{[4-(dimethylamino)quinazolin-2-yl]amino}cyclohexyl)methyl]-N′-(4-iodophenyl)urea] | 2 (Class 2: The value of percent of control at 10^−7 M was from 40% to 60% or the value of IC50 was from 50 nM to 200 nM.) |
| COc1ccc(NC(=O)NC[C@H]2CC[C@@H](Nc3nc(N(C)C)c4ccccc4n3)CC2)c(C)c1 [compound 556] | 2 (Class 2: The value of percent of control at 10^−7 M was from 40% to 60% or the value of IC50 was from 50 nM to 200 nM.) |
| COc1ccc(NC(=O)NC[C@H]2CC[C@@H](Nc3nc(N(C)C)c4ccccc4n3)CC2)c([N+](=O)[O-])c1 [compound 557] | 3 (Class 3: The value of percent of control at 10^−7 M was more than 60% or the value of IC50 was more than 200 nM.) |
| Cc1ccc(NC(=O)NC[C@H]2CC[C@@H](Nc3nc(N(C)C)c4ccccc4n3)CC2)cc1[N+](=O)[O-] [compound 558, N-[(cis-4-{[4-(dimethylamino)quinazolin-2-yl]amino}cyclohexyl)methyl]-N′-(4-methyl-3-nitrophenyl)urea] | 2 (Class 2: The value of percent of control at 10^−7 M was from 40% to 60% or the value of IC50 was from 50 nM to 200 nM.) |
| Cc1ccc(CNC(=O)NC[C@H]2CC[C@@H](Nc3nc(N(C)C)c4ccccc4n3)CC2)cc1 [compound 559] | 3 (Class 3: The value of percent of control at 10^−7 M was more than 60% or the value of IC50 was more than 200 nM.) |
| CCCCOc1ccc(NC(=O)NC[C@H]2CC[C@@H](Nc3nc(N(C)C)c4ccccc4n3)CC2)cc1 [compound 560] | 3 (Class 3: The value of percent of control at 10^−7 M was more than 60% or the value of IC50 was more than 200 nM.) |
| CCCCc1ccc(NC(=O)NC[C@H]2CC[C@@H](Nc3nc(N(C)C)c4ccccc4n3)CC2)cc1 [compound 561] | 3 (Class 3: The value of percent of control at 10^−7 M was more than 60% or the value of IC50 was more than 200 nM.) |
